A short description of the series: Solubility of racemic and enantiopure hydroxy cineol in different solvents at room temperature. The settings on record: for Solubility: room temperature.

In brackets after ≈: the same amount, converted by molar mass.

Experimental: The solubility of racemic hydroxy cineol and enantiopure hydroxy cineol was checked at room temperature in solvents namely, petroleum ether, n-pentane, n-hexane, n-heptane, iso-octane, cyclohexane and toluene.
The solubility at room temperature was determined by adding under stirring small portions of the substance to 5 mL of solvent until it reached saturation and formation of a no more soluble sediment was observed.

For `CC(C)C12CCC(C)(O1)C(O)C2` (racemic) [Racemate, hydroxy cineol], the Solubility – broadly, the concentration that dissolves in the medium under given conditions – (cyclohexane) stood at 0.38 g/mL (≈ 2230 mM); the Solubility (iso-octane) came to 0.075 g/mL (≈ 441 mM); the Solubility (n-heptane) was 0.08 g/mL (≈ 470 mM); the Solubility (n-hexane) came out at 0.1 g/mL (≈ 587 mM); the Solubility (n-pentane) is 0.15 g/mL (≈ 881 mM); the Solubility (petroleum ether) was 0.12 g/mL (≈ 705 mM). This compound returned a Solubility (toluene) of 0.8 g/mL (≈ 4700 mM). Besides, the “solubility of racemate relative to the optical pure hydroxy-cineol” value (n-heptane) was found to be 8 fold. Further, the “solubility of racemic compound compared with optical pure material” value (non-polar solvents) is listed as “much better soluble”.

Source of the values: patent US11866443B2, “Method for separating optically active hydroxy cineole derivatives” (BASF Agro B.V., priority 2017, dated 2024).
